Source: paper PMC9421655, “Novel Antagonist of the Type 2 Lysophosphatidic Acid Receptor (LPA2), UCM-14216, Ameliorates Spinal Cord Injury in Mice” (Journal of Medicinal Chemistry, 2022)
Entries after “also recorded” stand apart in the source; their conditions may differ.

How the values were obtained:
LPA3 = biological target: T1, LPA3 (Homo sapiens, UniProt Q9UBY5); experiment: cell-based; conditions: maximum blockade of activation induced by 10 μM LPA (18:1) at 10 μM compound; N.E. = no effect at 10 μM
T1 sequence (Q9UBY5 1-353): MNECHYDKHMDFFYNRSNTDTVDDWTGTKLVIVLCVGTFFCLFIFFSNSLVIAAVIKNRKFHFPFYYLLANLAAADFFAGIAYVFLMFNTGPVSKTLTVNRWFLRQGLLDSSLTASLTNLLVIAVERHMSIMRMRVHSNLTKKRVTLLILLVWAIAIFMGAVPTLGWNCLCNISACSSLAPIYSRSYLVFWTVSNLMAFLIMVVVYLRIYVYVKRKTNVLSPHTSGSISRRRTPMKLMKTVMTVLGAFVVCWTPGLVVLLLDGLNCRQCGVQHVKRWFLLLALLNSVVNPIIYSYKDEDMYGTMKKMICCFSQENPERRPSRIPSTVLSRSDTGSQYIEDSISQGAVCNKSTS
Protocol: Cells stably expressing the corresponding LPA1–3 receptor were grown as described previously.[18] Changes in intracellular calcium levels were measured by using the fluorescent calcium sensitive dye Fluo-4 NW (Invitrogen). RH7777 cells or B103 cells were plated on poly-D-lysine or collagen coated, respectively, black-wall clear-bottom 96-well plates (Corning) at a density of 50 000 cells/well and cultured overnight. The culture medium was then replaced with 100 μL of Fluo-4 NW dye loading solution containing 2.5 μM of probenecid and incubated for 30 min at 37 °C followed by an additional 30 min at rt. […] Fluorescence changes were registered in a FluoStar Optima instrument (BMG Labtech) at 525 nm using an excitation wavelength of 494 nm. […] The data presented are from two to four independent experiments carried out in triplicate or quadruplicate. Dose–response curves were generated and IC50 values calculated by nonlinear regression analysis using Prism software version 5 (GraphPad Software Inc., San Diego, CA, USA).

LPA2 K278A mutant = biological target: T2, LPA2 K278A mutant (Homo sapiens, UniProt Q9HBW0, K275A); experiment: Ca2+ mobilization in McA-RH7777 cells transfected with LPA2 point mutant K278A; type: cell-based
T2 construct: host or cells: McA-RH7777 (CRL-1601, ATCC), transient, pcDNA3.1

[1] = Parallel artificial membrane permeability assay (PAMPA); type: in vitro ADME; conditions: pH 7.4, PAMPA, PBS pH 7.4, 5 h, rt, read-out: P (cm/s), permeability value
Protocol: These studies were carried out as previously described with minor modifications.[41],[42] The assessment of the membrane permeability of synthesized compounds and propranolol and metoprolol as reference compounds was performed in a commercially available 96-well Corning Gentest precoated PAMPA plate system (Cultek S.L.U., Spain). Prior to use, the precoated PAMPA plate system was warmed to rt for 30 min and 300 μL of 200 μM solution of tested compound in 2% DMSO in PBS (pH 7.4) were added into wells in the receiver (donor) plate. Then, 200 μL of PBS were added into wells in the filter (acceptor) plate. The filter plate was placed on the receiver plate by slowly lowering the precoated PAMPA plate until it sits on the receiver plate. The assembly was incubated at rt for 5 h, and then buffer samples were collected carefully from each plate. The final concentrations of compound in both donor and acceptor wells were analyzed by HPLC-MS and quantification was estimated by using the peak area integration normalized with an internal standard. Permeability value of the compounds was calculated using the following formula: P (cm/s) = {−ln[1 – CA(t)/Ceq]}/[A(1/VD + 1/VA)t], where A = filter area (0.3 cm^2), VD = donor well volume (0.3 mL), VA = acceptor well volume (0.2 mL), t = incubation time (s), CA(t) = compound concentration (μM) in the acceptor well at time t, CD(t) = compound concentration (μM) in donor well at time t, and Ceq = [CD(t)VD + CA(t)VA]/(VD + VA). Assays were performed in duplicate, and the compound was tested in two different plates on different days.

[2] = Metabolic stability in mouse liver microsomes; type: in vitro ADME; conditions: male, CD-1, mouse, liver microsomes (pooled), 1 mg/mL protein, NADPH, 37 °C, read-out: stability (t1/2, min) MLMs
Protocol: Reactions were initiated by the addition of a suspension of mouse liver microsomes (MLMs) (male CD-1 mice pooled, Sigma-Aldrich) or human liver microsomes (HLMs) (male human pooled, Sigma-Aldrich), respectively, at a final protein concentration of 1 mg/mL. […] Aliquots of 100 μL were quenched at time zero and at seven points ranging to 2 h (MLM) or 4 h (HLM) by pouring into 100 μL of ice-cold acetonitrile. […] The relative disappearance of the compound under study over the course of the incubation was monitored by HPLC-MS using SIM mode. Concentrations were quantified by measuring the area under the peak ([M + H]^+) normalized with an internal standard and converted to the percentage of compound remaining, using the time zero peak area value as 100%. The natural logarithm of the remaining percentage versus time data for each compound was fit to a linear regression, and the slope was used to calculate the degradation half-life (t1/2).

[3] = tested on: spinal cord injury in LPA2 null mice; experiment: Spinal cord contusion injury model in LPA2 null mice (Basso Mouse Scale); type: in vivo; conditions: 25 mg/kg i.p. daily for 10 days
Protocol: Effect of i.p. injection of 54 (25 mg/kg) or vehicle on locomotor recovery in (A) C57bl/6 mice and (B) LPA2 deficient mice quantified using the 0 (absence of movement) to 9 (completely normal locomotor behavior) Basso Mouse Scale (BMS). Data are expressed as mean ± s.e.m. and correspond to seven animals per group in A and five animals per group in B. * p < 0.05 compared with vehicle-treated group (two-way repeated measures ANOVA with Bonferroni’s post hoc test for multiple comparisons).
All Surgical Procedures Were Approved by the Universitat Autònoma De Barcelona Animal Care Committee (CEEAH 4273) and followed the guidelines of the European Commission on Animal Care (EU Directive 2010/63/EU). Adult female C57Bl/6J mice (10–12 weeks old) and LPA2 null mice were anesthetized by intramuscular injection with a mixture of ketamine and xylazine (90:10 mg/kg). A laminectomy was performed at the 11th thoracic vertebrae and the exposed spinal cord was contused using the Infinite Horizon Impactor device (Precision Scientific Instrumentation) using a force of 60 kdynes. Only mice showing a spinal cord tissue displacement ranging between 450 and 550 μm were selected.

[4] = In vivo levels of compound in plasma, spinal cord and brain (HPLC-MS); conditions: 25 mg/kg i.p.
Protocol: At 1, 2, and 4 h after drug administration (n = 3 for each time and sample), mice were sacrificed and their brains, spinal cords, and blood were obtained. The brain and spinal cord were immediately frozen and kept at −80 °C until analysis. Blood was allowed to clot at rt for 30 min and centrifuged at 4 °C for 10 min at 16 000g. Serum was transferred to a clean polypropylene tube and stored at −80 °C until analysis. For analysis, a volume of cold acetonitrile was added to the serum. The sample was incubated in an ice bath for 10 min and centrifuged at 4 °C for 10 min at 16 000g. The resulting organic layer was filtered through a PTFE filter (0.2 μm, 13 mm diameter, Fisher Scientific) and 20 μL of the sample analyzed by LC-MS/MS at the UCM’s Mass Spectrometry CAI. Separation was performed using a Phenomenex Gemini 5 μm C18 110A 150 × 2 mm column (run time 8 min; flow 0.5 mL/min; gradient: 0.5 min 10% Phase B, 2 min 60% Phase B, 4.5–6 min 100% Phase B, 7–8 min 10% Phase B; Phase A: water with formic acid 0.1%; Phase B: acetonitrile). […] The mass spectrometer ion optics were set in the multiple reaction monitoring mode and the transition selected for quantification was 432.90 > 215.10 (CE: −30 V).

T2 sequence (Q9HBW0 whole entry K275A): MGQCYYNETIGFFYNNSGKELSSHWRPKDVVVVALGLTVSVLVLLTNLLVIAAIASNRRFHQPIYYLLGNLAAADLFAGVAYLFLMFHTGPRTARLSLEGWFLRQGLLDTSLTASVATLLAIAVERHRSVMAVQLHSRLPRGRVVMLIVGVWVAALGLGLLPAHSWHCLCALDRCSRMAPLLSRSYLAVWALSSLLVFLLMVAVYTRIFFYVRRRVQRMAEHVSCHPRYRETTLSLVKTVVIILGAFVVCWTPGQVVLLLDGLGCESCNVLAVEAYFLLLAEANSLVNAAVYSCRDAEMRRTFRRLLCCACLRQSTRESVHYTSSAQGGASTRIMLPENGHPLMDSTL

With `Cc1[nH]nc(-c2ccc(OCc3nnn[nH]3)cc2O)c1Oc1ccc(Cl)cc1Cl` [Compound 54] the “Emax (%) LPA3” value (LPA3) was “inactive and N.E”, the “functional activity at LPA2 K278A mutant” value (LPA2 K278A mutant; 10 μM) was “behaved as an agonist” and the “activation of LPA2 K278A mutant” value (LPA2 K278A mutant; at 10 μM, stimulation by 10 μM LPA normalized to 100%) was 75 ± 5%. For the same compound, the Papp at 5 h, 200 μM [1] was 6.1 ×10⁻⁶ cm/s, the half-life at 1 μM [2] was 50 ± 6 min and the “locomotor recovery after SCI (BMS)” value [3] was “did not induce any significant effect; also recorded: inactive”. For the same compound, the “time of maximum levels in spinal cord and brain” value [4] was “one hour postadministration”.
